Data on seven compounds can be found in patent US20250276962A1, “CONTRACEPTIVE COMPOUNDS AND METHODS” (Regents of the University of Minnesota, priority 2021, published 2025).

The target of one series is T1, RARα (Homo sapiens, UniProt P10276).
T1 construct: host or cells: unnamed reporter cells
T1 sequence (P10276 1-462): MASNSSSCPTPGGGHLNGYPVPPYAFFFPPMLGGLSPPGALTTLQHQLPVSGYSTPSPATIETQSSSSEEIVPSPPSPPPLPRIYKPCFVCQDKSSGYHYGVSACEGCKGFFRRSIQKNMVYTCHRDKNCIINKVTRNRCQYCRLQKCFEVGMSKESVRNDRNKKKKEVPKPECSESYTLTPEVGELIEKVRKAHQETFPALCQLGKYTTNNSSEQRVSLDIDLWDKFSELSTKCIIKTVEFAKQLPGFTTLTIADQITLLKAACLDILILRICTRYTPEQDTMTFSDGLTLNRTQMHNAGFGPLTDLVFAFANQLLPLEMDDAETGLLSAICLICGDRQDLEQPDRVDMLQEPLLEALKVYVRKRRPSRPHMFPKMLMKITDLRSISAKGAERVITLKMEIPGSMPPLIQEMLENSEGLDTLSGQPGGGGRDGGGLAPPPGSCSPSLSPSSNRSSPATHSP
The series is described as follows: Transactivation (luciferase) antagonist assay, RARα. In kind it is cell-based. As to conditions: vs EC80 (180 nM) 9-cis-RA, luciferase readout; read-out: RARα Antagonism IC50. The procedure: (§1) Control wells containing cells without added agonist defined the background signal values. […] Cell suspension (30 μL) was added to each well and the assay plate was incubated overnight in a 5% CO2 incubator at 37° C. Luciferase detection reagent (15 μL) was then added and the plate was incubated at RT for 30 minutes. Luminescence was quantified using an EnSpire plate reader (PerkinElmer, Waltham, MA). IC50 values were determined by fitting dose response data using the four-parameter logistic equation in GraphPad Prism 7.0.

The target of the next series is T2, RARγ (Homo sapiens, UniProt P13631).
T2 construct: host or cells: unnamed reporter cells
T2 sequence (P13631 1-454): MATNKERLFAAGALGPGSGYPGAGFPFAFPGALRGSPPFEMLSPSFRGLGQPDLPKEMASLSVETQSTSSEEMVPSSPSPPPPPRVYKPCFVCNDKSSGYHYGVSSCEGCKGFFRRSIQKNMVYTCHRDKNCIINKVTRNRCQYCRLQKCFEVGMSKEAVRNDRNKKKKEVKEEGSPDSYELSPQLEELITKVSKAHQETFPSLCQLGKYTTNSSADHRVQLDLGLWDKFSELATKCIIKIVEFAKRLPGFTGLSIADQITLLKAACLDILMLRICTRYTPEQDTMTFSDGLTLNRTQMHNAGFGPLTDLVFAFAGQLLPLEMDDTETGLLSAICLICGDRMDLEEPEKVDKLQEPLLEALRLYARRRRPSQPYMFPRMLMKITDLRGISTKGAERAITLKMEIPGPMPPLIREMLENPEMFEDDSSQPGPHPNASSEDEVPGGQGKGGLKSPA
The series is described as follows: Transactivation (luciferase) antagonist assay, RARγ. Format: cell-based. As to conditions: vs EC80 (8 nM) ATRA, luciferase readout; read-out: RARγ Antagonism IC50. The procedure:
as §1

In a further series the target is T3, RARβ (Homo sapiens, UniProt P10826).
T3 construct: host or cells: unnamed reporter cells
T3 sequence (P10826 1-455): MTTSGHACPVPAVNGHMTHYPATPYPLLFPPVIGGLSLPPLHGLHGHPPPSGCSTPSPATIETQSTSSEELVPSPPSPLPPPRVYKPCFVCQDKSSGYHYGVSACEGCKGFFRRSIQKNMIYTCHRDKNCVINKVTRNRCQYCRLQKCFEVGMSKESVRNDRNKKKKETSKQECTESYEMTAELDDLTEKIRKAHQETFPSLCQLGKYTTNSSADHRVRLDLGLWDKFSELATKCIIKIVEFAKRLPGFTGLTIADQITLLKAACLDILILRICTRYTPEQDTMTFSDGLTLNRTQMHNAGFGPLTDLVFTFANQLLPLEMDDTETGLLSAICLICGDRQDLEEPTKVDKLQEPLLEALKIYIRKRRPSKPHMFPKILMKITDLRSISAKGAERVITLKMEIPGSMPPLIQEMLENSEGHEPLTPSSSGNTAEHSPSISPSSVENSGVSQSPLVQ
The series is described as follows: Transactivation (luciferase) antagonist assay, RARβ. In kind it is cell-based. As to conditions: vs EC80 (8 nM) ATRA, luciferase readout; read-out: RARβ Antagonism IC50. The procedure: as §1

Series [1] in a line: Solubility in PBS at pH 7.4. In kind it is physicochemical.

Converted amounts (≈) assume the structure as drawn.

One may read the IC50 as the concentration that gives 50% inhibition. For `Cc1ccc(C2=CC(C)(C)Oc3ccc(-c4ccc(-c5ccc(C(=O)O)c(F)c5)[nH]4)cc32)cc1`, the IC50 at RARα amounted to 100 nM.

As to `Cc1ccc(C2=CC(C)(C)Oc3ccc(-c4ccc(-c5cc(F)c(C(=O)O)c(F)c5)[nH]4)cc32)cc1`, on RARα, the IC50 is 470 nM.

On to `COc1cc2c(cc1-c1ccc(-c3ccc(C(=O)O)cc3)[nH]1)C(c1ccc(C)cc1)=CC(C)(C)O2`, for which the concentration for half-maximal inhibition (IC50) at RARα was determined as 2000 nM.

In the case of `CC1(C)C=C(c2ccccc2)c2cc(-c3ccc(-c4ccc(C(=O)O)cc4)[nH]3)ccc2O1`, the values for the 50% inhibitory concentration (IC50) at RARγ, on RARα and on RARβ were over 3.3 µM, 15 nM and over 3.3 µM, respectively.

Consider `Cc1ccc(C2=CC(C)(C)Oc3ccc(-c4ccc(-c5ccc(C(=O)O)c(O)c5)[nH]4)cc32)cc1`, for which the IC50 is over 3 µM at RARγ, 94 nM at RARα and over 3 µM at RARβ.

Turning to `Cc1ccc(C2=CC(C)(C)Oc3ccc(-c4ccc(-c5ccc(C(=O)O)c(C)c5)[nH]4)cc32)cc1`, the results for the IC50 at RARγ, on RARα and at RARβ were over 3 µM, 87 nM and over 3 µM, respectively.

Usually solubility stands for the concentration that dissolves in the medium under given conditions. Read a high solubility as much dissolved substance. For the compound `CC(=O)[C@H]1CC[C@H]2[C@@H]3CCC4=CC(=O)CC[C@]4(C)[C@H]3CC[C@]12C` [Progesterone, reference compound], in series [1], the “solubility” value was determined as 14.02 µM (≈ 4.41 µg/mL).
